Results published in article PMC8922279, “Identification of β-Lactams Active against Mycobacterium tuberculosis by a Consortium of Pharmaceutical Companies and Academic Institutions” (ACS Infectious Diseases, 2022).
Like-named read-outs stand apart in the source and are kept apart here.

Columns and labels:
[1] = system: wild-type Mtb H37Rv; format: in vivo, 129sv DHP-1 knockout mice; details: for Log10 CFU per mouse (lungs), Mean: 50 mg/kg sc bid + clavulanate 100 mg/kg po bid, days 9-15, lungs day 16, untreated day 16 mean 9.1
[2] = female, 129sv DHP-1 knockout, mouse, in vivo
[3] = in vivo; details: female, 129sv DHP-1 knockout, mouse, sc, 50 mg/kg
[4] = Mouse PK in uninfected CD-1 mice (i.v. and p.o.)
[5] = system: Mtb H37Rv; experiment: MIC90 against nonreplicating (NR, 4-stress) Mtb H37Rv, with or without clavulanate; format: cell-based, Mycobacterium tuberculosis; details: 4-stress nonreplicating, Table S4; for Mtb H37Rv NR + CLAV (MIC90): clavulanate 4 μg/mL; for Mtb H37Rv NR (MIC90): no clavulanate
[6] = system: plasma proteins; experiment: Plasma protein binding (equilibrium dialysis), SD rat; details: 2 μM
[7] = system: plasma proteins; experiment: Plasma protein binding (equilibrium dialysis), beagle dog; details: 2 μM
[8] = system: S. aureus; experiment: Microbial spectrum, S. aureus; format: cell-based, Staphylococcus aureus; details: clavulanate 4 μg/mL; Table S4
[9] = system: plasma proteins; experiment: Plasma protein binding (equilibrium dialysis), human; details: 2 μM
[10] = Stability in fasted simulated intestinal fluid (FaSSIF); details: 10 μM, pH 6.5, room temperature
[11] = In vitro plasma stability, beagle dog plasma; details: 2 μM, 37 °C, time point 120 min
[12] = system: C. albicans; experiment: Microbial spectrum, C. albicans; format: cell-based, Candida albicans; details: no clavulanate; Table S4
[13] = In vitro plasma stability, cynomolgus monkey plasma; details: 2 μM, 37 °C, time point 120 min
[14] = system: E. coli; experiment: Microbial spectrum, E. coli; format: cell-based, Escherichia coli; details: clavulanate 4 μg/mL; Table S4
[15] = In vitro plasma stability, CD-1 mouse plasma; details: 2 μM, 37 °C, time point 120 min
[16] = system: plasma proteins; experiment: Plasma protein binding (equilibrium dialysis), CD-1 mouse; details: 2 μM
[17] = system: plasma proteins; experiment: Plasma protein binding (equilibrium dialysis), cynomolgus monkey; details: 2 μM
[18] = system: P. aeruginosa; experiment: Microbial spectrum, P. aeruginosa; format: cell-based, Pseudomonas aeruginosa; details: clavulanate 4 μg/mL; Table S4
[19] = In vitro plasma stability, SD rat plasma; details: 2 μM, 37 °C, time point 120 min
[20] = In vitro plasma stability, human plasma; details: 2 μM, 37 °C, time point 120 min
[21] = system: Caco-2 cells; experiment: Caco-2 permeability / efflux transporter substrate; details: for Caco-2 Mean Papp A to B / Caco-2 Mean Papp B to A: 3 μM, pH 7.4, 120 min; for Caco-2 Mean Recovery % A to B / Caco-2 Mean Recovery % B to A / Caco-2 Rank Papp / Caco-2 Efflux Ratio / Efflux Transporter Substrate: Caco-2
[22] = system: Mtb H37Rv; experiment: MIC90 against replicating (R) Mtb H37Rv, with or without clavulanate; format: cell-based, Mycobacterium tuberculosis; details: Table S4; for Mtb H37Rv R + CLAV (MIC90): clavulanate 4 μg/mL; for Mtb H37Rv R (MIC90): no clavulanate
[23] = Stability in simulated gastric fluid (SGF); details: 10 μM, pH 1.2, room temperature
[24] = 300 mg/kg sc, uninfected DHP-1 mice
[25] = in vivo; details: DHP-1 knockout, mouse, sc, 300 mg/kg

| Structure (SMILES) | Mtb H37Rv NR + CLAV (MIC90) [5] | Mtb H37Rv NR (MIC90) [5] | % bound to plasma, SD Rat [6] | % bound to plasma, Beagle Dog [7] | S.aureus R + CLAV (MIC90) [8] | % bound to plasma, Human [9] | FaSSIF Stability, % remaining, 6h [10] | FaSSIF Stability, % remaining, 24h [10] | Plasma stability % Remaining, Dog [11] | C.albicans R (MIC90) [12] | Plasma stability % Remaining, Monkey [13] | E.coli R + CLAV (MIC90) [14] | Plasma stability % Remaining, Mouse [15] | % bound to plasma, CD-1 Mouse [16] | % bound to plasma, Cynomolgus Monkey [17] | P.aeruginosa R + CLAV (MIC90) [18] | Plasma stability % Remaining, Rat [19] | Plasma stability % Remaining, Human [20] | Caco-2 Mean Papp A to B [21] | Caco-2 Mean Papp B to A [21] | further results |
| --- | --- | --- | --- | --- | --- | --- | --- | --- | --- | --- | --- | --- | --- | --- | --- | --- | --- | --- | --- | --- | --- |
| C=CC1=C(C(=O)O)N2C(=O)[C@@H](NC(=O)/C(=N\O)c3csc(N)n3)[C@H]2SC1 [Cefdinir, reference compound] | – | – | – | – | – | – | – | – | – | – | – | – | – | – | – | – | – | – | – | – | Log10 CFU per mouse (lungs), Mean [1]: 8.5 Log10 CFU; effect on lung CFU (in words) ([1]; mouse, in vivo): lower lung CFU count compared to untreated mice; Tlast [2]: 1.0 h; AUC(0-t) [3]: 4630 ng·h/mL; Cmax [3]: 8730 ng/mL; Tmax [3]: 30 min |
| O=C(O)C1=C(CSc2cccc[n+]2[O-])CS[C@@H]2[C@H](NC(=O)C(F)c3ccccc3)C(=O)N12 (stereo partly shown) [TBBL-0000004] | 2.3 µM | 1.7 µM | 62.0% | 59.2% | 1.4 µM | 74.1% | 88.58% | 94.96% | 64.1% | > 100 µM | 103.9% | > 100 µM | 84.1% | 65.5% | 78.2% | > 100 µM | 71.0% | 81.0% | < 0.12 10-6 cm/s | < 0.11 10-6 cm/s | AUC[0-5h] ([4]; i.v. dosing (5 mg/kg)): 5075 ng·h/mL; Vd ([4]; i.v. dosing (5 mg/kg)): 1.02 L/kg; clearance ([4]; i.v. dosing (5 mg/kg)): 16.4 mL/min/kg; half-life ([4]; i.v. dosing (5 mg/kg)): 32.4 min; k el ([4]; i.v. dosing (5 mg/kg)): 0.96 h⁻¹; Caco-2 Mean Recovery % A to B [21]: < 98.09%; Caco-2 Mean Recovery % B to A [21]: < 112.70%; Caco-2 Rank Papp [21]: Low; Mtb H37Rv R + CLAV (MIC90) [22]: 1.5 µM; Mtb H37Rv R (MIC90) [22]: 1.2 µM |
| CCc1nnc(SCC2=C(C(=O)O)N3C(=O)[C@@H](NC(=O)Cc4ccc(C5=NCCN5)cc4)[C@H]3SC2)s1 [TBBL-0000310] | 92.2 µM | 90.4 µM | 81.2% | 30.5% | 0.9 µM | 60.7% | 98.8% | 95.07% | 79.6% | > 100 µM | 110.3% | 49.9 µM | 82.2% | 49.9% | 56.2% | > 100 µM | 80.0% | 78.9% | 0.46 10-6 cm/s | 0.43 10-6 cm/s | SGF Stability, % remaining, 1h [23]: 86.27%; SGF Stability, % remaining, 24h [23]: 0.61%; AUC[0-5h] ([4]; i.v. dosing (5 mg/kg)): 39113 ng·h/mL; Vd ([4]; i.v. dosing (5 mg/kg)): 0.09 L/kg; clearance ([4]; i.v. dosing (5 mg/kg)): 2.13 mL/min/kg; half-life ([4]; i.v. dosing (5 mg/kg)): 28.8 min; k el ([4]; i.v. dosing (5 mg/kg)): 1.45 h⁻¹; AUC[0-5h] ([4]; p.o. dosing (25 mg/kg)): 614 ng·h/mL; bioavailability ([4]; p.o. dosing (25 mg/kg)): 0.34%; Caco-2 Efflux Ratio [21]: 0.94; Caco-2 Mean Recovery % A to B [21]: 99.13%; Caco-2 Mean Recovery % B to A [21]: 102.93%; Caco-2 Rank Papp [21]: Low; Efflux Transporter Substrate [21]: Poor or no; Mtb H37Rv R + CLAV (MIC90) [22]: 0.5 µM; Mtb H37Rv R (MIC90) [22]: 16.4 µM |
| CCCc1nnc(SCC2=C(C(=O)O)N3C(=O)[C@@H](NC(=O)Cc4ccc(C(=N)N)cc4)[C@H]3SC2)s1 [TBBL-0000314] | > 100 µM | > 100 µM | 84.6% | 46.7% | 1.6 µM | 65.7% | 101.85% | 95.17% | 77.0% | > 100 µM | 103.9% | > 100 µM | 76.2% | 67.9% | 60.1% | > 100 µM | 73.3% | 77.2% | < 0.07 10-6 cm/s | < 0.06 10-6 cm/s | SGF Stability, % remaining, 1h [23]: 76.41%; SGF Stability, % remaining, 24h [23]: 1.85%; Caco-2 Mean Recovery % A to B [21]: < 94.56%; Caco-2 Mean Recovery % B to A [21]: < 107.68%; Caco-2 Rank Papp [21]: Low; Mtb H37Rv R + CLAV (MIC90) [22]: 0.8 µM; Mtb H37Rv R (MIC90) [22]: 14.1 µM |
| CNCc1ccccc1CC(=O)N[C@@H]1C(=O)N2C(C(=O)O)=C(CSc3nnnn3C)CS[C@H]12 [TBBL-0000468] | > 100 µM | > 100 µM | 39.1% | 7.3% | 8.7 µM | 21.1% | 83.23% | 56.36% | 77.2% | > 100 µM | 101.7% | > 100 µM | 72.0% | 1.7% | 21.9% | > 100 µM | 80.8% | 73.6% | < 0.25 10-6 cm/s | < 0.21 10-6 cm/s | SGF Stability, % remaining, 1h [23]: 101.42%; SGF Stability, % remaining, 24h [23]: 49.27%; Caco-2 Mean Recovery % A to B [21]: < 102.74%; Caco-2 Mean Recovery % B to A [21]: < 109.10%; Caco-2 Rank Papp [21]: Low; Mtb H37Rv R + CLAV (MIC90) [22]: 5.4 µM; Mtb H37Rv R (MIC90) [22]: 16.4 µM |
| NC(C(=O)N[C@@H]1C(=O)N2C(C(=O)O)=C(CSc3cccc[n+]3[O-])CS[C@H]12)c1ccc(O)cc1 (stereo partly shown) [TBBL-0000652] | – | – | – | – | – | – | – | – | – | – | – | – | – | – | – | – | – | – | – | – | Log10 CFU per mouse (lungs), Mean [1]: 8.6 Log10 CFU; reduction of lung CFU compared to untreated control mice ([1]; mouse, in vivo): ~0.5 log10; Tlast [2]: 3.0 h; Comments (tolerability) [24]: Recovered at t= 8h; Tlast [24]: 2.0 to 4.0 h; AUC(0-t) [25]: 29400 ± 32900 ng·h/mL; Cmax [25]: 22200 ± 21700 ng/mL; Tmax [25]: 60 to 120 min; AUC(0-t) [3]: 11500 ng·h/mL; Cmax [3]: 8320 ng/mL; Tmax [3]: 60 min |
| NCc1ccccc1CC(=O)N[C@@H]1C(=O)N2C(C(=O)O)=C(CSc3nnnn3CCO)CS[C@H]12 [TBBL-0000656] | > 100 µM | > 100 µM | 50.2% | 11.2% | > 100 µM | 23.3% | 89.32% | 70.9% | 74.7% | > 100 µM | 85.7% | 9.8 µM | 95.0% | 23.0% | 22.0% | > 100 µM | 85.1% | 75.1% | < 0.12 10-6 cm/s | 0.27 10-6 cm/s | SGF Stability, % remaining, 1h [23]: 87.12%; SGF Stability, % remaining, 24h [23]: 53.93%; Caco-2 Efflux Ratio [21]: > 2.26; Caco-2 Mean Recovery % A to B [21]: < 102.47%; Caco-2 Mean Recovery % B to A [21]: 106.09%; Caco-2 Rank Papp [21]: Low; Efflux Transporter Substrate [21]: Likely; Mtb H37Rv R + CLAV (MIC90) [22]: 2.1 µM; Mtb H37Rv R (MIC90) [22]: 5.8 µM |
